Where a name gives a salt, the structure may show the parent alone.
System: apomorphine-induced gnawing
Assay: Antiapomorphine activity (apomorphine-induced gnawing) in the rat
Assay type: in vivo
Settings: for ED50 / minimal effective dose: Rattus norvegicus; for ED50: po, per os, Table I, read-out: ED50 Values; for minimal effective dose: read-out: Antiapomorphine in rat; for activity as an anti-emetic: compared with metoclopramide, from Table I
From the text: A number of the compounds of the present invention were screened in parallel with metoclopramide for potential anti-emetic effects against apomorphine-induced gnawing in the rat and as local anaesthetics on the rat sciatic nerve (Table I).
*Antiapomorphine activity in rat scored as […]

SMILES | ED50 | minimal effective dose | activity as an anti-emetic | antiapomorphine activity in the rat (even at high doses)
COc1cc(NC(C)=O)c(Cl)cc1C(=O)NC1CCN(Cc2ccccc2)CC1 [Compound 1, N-[4'-(1'-benzyl)piperidyl]-2-methoxy-4-acetamido-5-chlorobenzamide] | ~25 mg/kg | 12.5 mg/kg | – | –
COc1cc(NC(=O)CCl)c(Cl)cc1C(=O)NC1CCN(Cc2ccccc2)CC1 [Compound 3, N-[4'-(1'-benzyl)piperidyl]-2-methoxy-4-(α-chloroacetamido)-5-chlorobenzamide hydrochloride] | < 25 mg/kg | 6.25 mg/kg | more active as an anti-emetic | –
COc1cc(NC(=O)CN2CCCCC2)c(Cl)cc1C(=O)NC1CCN(Cc2ccccc2)CC1 [Compound 4, N-[4'-(1'-benzyl)piperidyl] -2-methoxy-4-α-(1"-piperidyl) acetamido-5-chlorobenzamide dihydrochloride] | ~12 mg/kg | 12.5 mg/kg | – | –
COc1cc(NC(=O)CCl)ccc1C(=O)NC1CCN(Cc2ccccc2)CC1 [Compound 5, N-[4'-(1'-benzyl)piperidyl]-2-methoxy-4-α-chloroacetamidobenzamide hydrochloride] | – | 25 mg/kg | – | –
O=C(CCl)Nc1ccc(C(=O)NC2CCN(Cc3ccccc3)CC2)cc1 [Compound 6, N-[4'-(1'-benzyl)piperidyl]-4-(α-chloroacetamido) benzamide hydrochloride] | – | 50 mg/kg | – | –
COc1cc(NC(=O)C(F)(F)F)ccc1C(=O)NC1CCN(Cc2ccccc2)CC1 [Compound 7, N-[4'-(1'-benzyl)piperidyl]-2-methoxy-4-(α,α,α-trifluoroacetamido) benzamide hydrochloride] | < 25 mg/kg | 25 mg/kg | – | –
COc1cc(N)ccc1C(=O)NC1CCN(Cc2ccccc2)CC1 [Compound 8, N-[4'-(1'-benzyl)-piperidyl]-2-methoxy-4-aminobenzamide dihydrochloride] | < 25 mg/kg | 6.25 mg/kg | more active as an anti-emetic | –
COc1cc(NC(=O)C(F)(F)F)c(Cl)cc1C(=O)NC1CCN(Cc2ccccc2)CC1 [Compound 9, N-[4'-(1'-benzyl)piperidyl]-2-methoxy-4-(α,α, α-trifluoroacetamido)-5-chlorobenzamide hydrochloride] | < 25 mg/kg | 3.12 mg/kg | more active as an anti-emetic | –
COc1ccc(Cl)cc1C(=O)NC1CCN(Cc2ccccc2)CC1 [Compound 10, N-[4'-(1'-benzyl)piperidyl]-2-methoxy-5-chlorobenzamide hydrochloride] | – | 50 mg/kg | – | –
COc1cc(N)c(Cl)cc1C(=O)NC1CCN(Cc2ccc(Cl)cc2)CC1 [Compound 12, N-[4'-(1'-p-chlorobenzyl)-piperidyl]-2-methoxy-4-amino-5-chloro-benzamide hydrochloride] | – | 3.12 mg/kg | more active as an anti-emetic | –
COc1cccc(CN2CCC(NC(=O)c3cc(Cl)c(N)cc3OC)CC2)c1 [Compound 13, N-[4'-(1'-m-methoxy-benzyl)-piperidyl]-2-methoxy-4-amino-5-chloro-benzamidehydrochloride] | – | 25 mg/kg | – | –
COc1cc(N)c(Cl)cc1C(=O)NC1CCN(Cc2cccs2)CC1 [Compound 14] | – | 12.5 mg/kg | – | –
COc1cc(N)c(Cl)cc1C(=O)NC1CCN(Cc2ccc3c(c2)OCO3)CC1 [Compound 15] | – | 6.25 mg/kg | more active as an anti-emetic | –
COc1cc(N)c(Cl)cc1C(=O)NC1CCN(CC=Cc2ccccc2)CC1 [Compound 16, N-[4'-(1'-cinnamyl)-piperidyl]-2-methoxy-4-amino-5-chlorobenzamide hydrochloride] | – | 25 mg/kg | – | –
COc1cc(N)c(Cl)cc1C(=O)NC1CCN(Cc2cccc(Cl)c2)CC1 [Compound 17, N-[4'-(1'-m-chlorobenzyl)-piperidyl]-2-methoxy-4-amino-5-chloro-benzamide hydrochloride] | – | 12.5 mg/kg | – | –
COc1ccc(CN2CCC(NC(=O)c3cc(Cl)c(N)cc3OC)CC2)cc1 [Compound 18, N-[4'-(1'-p-methoxy-benzyl)-piperidyl]-2-methoxy-4-amino-5-chloro-benzamidehydrochloride] | – | 3.12 mg/kg | more active as an anti-emetic | –
COc1cc(N)c(Cl)cc1C(=O)NC1CCN(C(c2ccccc2)c2ccccc2)CC1 [Compound 19, N-[4'-(1'-diphenyl-methyl)-piperidyl]-2-methoxy-4-amino-5-chloro-benzamide hydrochloride] | – | 50 mg/kg | – | –
COc1ccccc1CN1CCC(NC(=O)c2cc(Cl)c(N)cc2OC)CC1 [Compound 20, N-[4'-(1'-o-methoxy-benzyl)-piperidyl]-2-methoxy-4-amino-5-chloro-benzamide] | – | 25 mg/kg | – | –
COc1cc(N)c(Cl)cc1C(=O)NC1CCN(Cc2ccccc2Cl)CC1 [Compound 21, N-[4'-(1'-o-chlorobenzyl)-piperidyl]-2-methoxy-4-amino-5-chloro-benzamide hydrochloride] | – | 25 mg/kg | – | –
COc1ccc(S(N)(=O)=O)cc1C(=O)NC1CCN(Cc2ccccc2)CC1 [N-[4'-(1'-benzyl)piperidyl]-2-methoxy-5-sulphamoylbenzamide hydrochloride] | – | – | – | do not exhibit antiapomorphine activity in the rat even at high doses
